As usually defined, the inhibition is the percentage by which the read-out fell short of the control.

In one data set the test system is IL-1 induction of PGE-2. Put plainly: IL-1 induced PGE-2 in human skin fibroblasts (ELISA). In kind it is cell-based. The following applies: for inhibition at 100 µM: Example 3 (FIG. 4A); for inhibition at 50 µM: Example 3 (FIG. 4A/4B); for IL-1 induction of PGE-2 blocked: Example 2 dose-response (FIG. 3). How it is done: For this experiment, human skin fibroblasts were seeded into 12 well culture dishes, at a density of 80,000 cells/well in tissue culture medium and left overnight to attach to the dish. The next day, medium was removed and replaced with fresh medium containing either 1% ethanol as a diluent control, IL-1 at a concentration of 500 picograms/ml, or IL-1 plus 4-EB at either 250 μM or 500 μM. Cells were incubated for an additional 24 hours and at this time, the medium was removed and assayed by ELISA for the presence of PGE-2 the culture medium.
Subsequent studies were carried out to determine the dose-response of human skin fibroblasts to 4-EB. […] The results of the study are provided graphically in FIG. 3.
(§1) For this experiment, human skin fibroblasts were seeded into 12 well culture dishes at a density of 80,000 cells/well in tissue culture medium and left overnight to attach to the dish. The next day, medium was removed and replaced with fresh medium containing either 1% ethanol as a diluent control, IL-1 at a concentration of 500 picograms/ml, or IL-1 plus one of the compounds under investigation at a concentration of 1, 10, 50 or 100 μM. Cells were incubated for an additional 24 hours and at this time, the medium was removed and assayed by ELISA for the presence of PGE-2 in the culture medium.
(ELISA stands for enzyme-linked immunosorbent assay.)

Data set [1] concerns TPA-induced PGE2 expression in keratinocytes. Put plainly: TPA induced PGE-2 in human skin keratinocytes (ELISA). Type of data set: cell-based. The following applies: Keratinocyte, Example 4 (FIG. 5), TPA 32 nM, read-out: percent inhibition of TPA induced PGE-2. As for the experimental part: as §1
Similar in vitro studies as those described in Example 3 were run using human skin keratinocytes. The experimental set up was the same as described for Example 3 but replacing IL-1 with tetradecanoyl phorbol acetate (TPA) at a concentration of 32 nM as the agonist. The compounds tested were 2-ethoxybenzaldehyde (2-EB) and 3-ethoxybenzaldehyde (3-EB) and 4-ethoxybenzaldehyde (4-EB) in concentrations of either 10, 50, or 100 μM.

The nature of data set [2]: Franz cell percutaneous absorption analysis. In kind it is in vitro ADME, human. The following applies: from 1.0% 4-EB lotion; 24 hour period. As for the experimental part:
This lotion was then tested by Franz cell percutaneous absorption analysis to determine how much 4-EB could penetrate human skin over a 24 hour period. The lotion formulation above provided a flux rate of 4-EB through human skin of 30-50 micrograms/hour.

The mark [3] stands for this setting: Homo sapiens, Skin fibroblast, 100 μM, IL-1 500 picograms/ml, 24 hours, read-out: Percent inhibition of IL-1 induced PGE-2.
The mark [4] stands for this setting: Homo sapiens, Skin fibroblast, 50 μM, IL-1 500 picograms/ml, 24 hours, read-out: Percent inhibition of IL-1 induced PGE-2.

Each structure is given as a SMILES string.

As for `CCOc1ccccc1C=O` [2-EB, 2-ethoxybenzaldehyde], the inhibition at 100 µM with IL-1 induction of PGE-2 (setting [3]) was found to be 82.9%; in data set [1] it was 83%. The inhibition at 50 µM is 58.9% in the data set with IL-1 induction of PGE-2 (setting [4]) and 76.6% in data set [1]. Further, the inhibition at 10 µM in data set [1] (10 μM) was 55.2%.

For `CCOc1cccc(C=O)c1` [3-EB, 3-ethoxybenzaldehyde], the results for the inhibition at 100 µM (in the data set with IL-1 induction of PGE-2 (setting [3]); in data set [1]) were 41.2% and 76.7%, respectively. The inhibition at 50 µM in the data set on IL-1 induction of PGE-2 (setting [4]) worked out at 42.6%; in data set [1] it was 57.7%.

Turning to `CCOc1ccc(C=O)cc1` [4-EB, 4-ethoxybenzaldehyde], the “inhibition of the IL-1 induction of PGE-2” value with IL-1 induction of PGE-2 (Example 1, 250 μM or 500 μM, IL-1 500 picograms/ml, 24 hours) is listed as “complete inhibition”. In addition, the “IL-1 induction of PGE-2 blocked” value in the data set on IL-1 induction of PGE-2 (10 μM) was 35%; with IL-1 induction of PGE-2 (50 μM), 82%; with IL-1 induction of PGE-2 (100 μM), “completely blocked”. Moreover, the inhibition at 100 µM with IL-1 induction of PGE-2 (setting [3]) turned out to be 81.5%; in data set [1], 94.9%. The inhibition at 50 µM in data set [1] came to 79.9%. Also, the “flux rate of 4-EB through human skin” value in data set [2] is on record as 30-50 micrograms/hour.

Take `COc1ccc(C=O)cc1` [4-MB, 4-methoxybenzaldehyde]: in the data set on IL-1 induction of PGE-2 (Example 3, 10 or 50 μM), the “inhibition of the IL-1 induced production of PGE-2 (in words)” value is listed as “did not appear to inhibit”. Besides, the inhibition at 50 µM in the data set on IL-1 induction of PGE-2 (setting [4]) was determined as 13.6%. In the data set on IL-1 induction of PGE-2 (Homo sapiens, Skin fibroblast, Example 3 (FIG. 4B), 10 μM, IL-1 500 picograms/ml, 24 hours, read-out: Percent inhibition of IL-1 induced PGE-2), the inhibition at 10 µM was found to be 16.2%.
